From paper PMC8264504, “Identification of Koumine as a Translocator Protein 18 kDa Positive Allosteric Modulator for the Treatment of Inflammatory and Neuropathic Pain” (Frontiers in Pharmacology, 2021)
Like-named read-outs stand apart in the source and are kept apart here.

How the values were obtained:
[1] = system: rat model of CIA; test: Collagen-induced arthritis (CIA) model, MWT and hind paw volume; format: in vivo
Experimental: The induction of CIA in Lewis rats followed protocols and used reagents supplied by Chondrex. Bovine type II collagen (2 mg/ml in 0.05 M acetic acid) was emulsified with incomplete Freund’s adjuvant (IFA; Sigma-Aldrich) using an electric homogenizer equipped with a small blade. Equal volumes of collagen and IFA were mixed in an ice water bath, and collagen was added dropwise to the IFA at 1,000–3,000 rpm. […] Lewis rats were anesthetized and received 0.2 ml of collagen emulsion by subcutaneous injection at the base of the tail. Booster injections were given on day 7 of the study with 0.1 ml of emulsion. Immunized rats received Ro5-4864, koumine or vehicle for seven consecutive days beginning from day 29 after the first collagen injection. The mechanical withdrawal threshold (MWT) was determined on day 29 and day 35, the hind paw volume was determined on day 35, and was measured 60 min following the MWT measurement. Koumine or vehicle was injected s. c., and MWT values were determined 60 min after koumine injection. Ro5-4864 or vehicle was injected i. p., and MWT was determined 50 min after Ro5-4864 injection. To determine whether koumine potentiated the effects of Ro5-4864, koumine (1.0 mg/kg, s. c.) or vehicle was injected 10 min before Ro5-4864 (0.0625–1.0 mg/kg, i. p.) injection, and the MWT was determined 50 min after the last injection. Animals were randomized for treatment and behavioral test were performed in a blinded manner. Mechanical allodynia and edema measurement were measured using the procedures described below. Only rats with mechanical withdrawal threshold scores (calculated by mechanical withdrawal threshold of immunized rats/mechanical withdrawal threshold of normal rats) on day 28 after the first collagen injection >0.75 were used in the study.
Mechanical allodynia was measured using a commercially available electronic von Frey apparatus (Model 2,390; IITC Life Science Inc., Woodland Hills, CA) as described by Mitrirattanakul ([Mitrirattanakul et al., 2006]) with minor modifications. Rats were placed in a Plexiglas box on a steel mesh floor, and analyses were performed using an electronic von Frey apparatus. Stimulation was applied to the center of the hind paw in an upward motion of the von Frey filament until foot withdrawal occurred, and the withdrawal threshold was automatically recorded. The maximum strength of the filament used for von Frey testing was 55 g. The procedure was repeated three times at approximately 5 min intervals for each hind paw, and the MWT was calculated as the mean of the three latencies.
Arthritic edema was assessed by measuring the hind paw volume with a plethysmometer (Yi Yan Technology Development Co., Ltd.) according to the manufacturer’s recommendations.

[2] = system: T98G human glioblastoma cells; test: Cell viability assay (CellTiter Blue); format: cell-based; details: same dosing regimen as proliferation, 48 h
Experimental: T98G cells were plated and treated as in the proliferation assays. After 48 h of drug exposure, CellTiter Blue Reagent (Promega) was added to the cells and incubated for 4 h in 5% CO2 at 37°C. Absorption was measured at 570 nm using 600 nm as a reference wavelength.

[3] = system: rat C6 glioma cells; test: Pregnenolone production; format: cell-based; details: for EC50: read-out: EC50, pregnenolone production
[4] = biological target: TSPO; design: method as in Awad and Gavish, 1987; Verma et al., 1987; details: radioligand binding experiment results from literatures, ref Awad and Gavish, 1987, Verma et al.; cited from earlier work
[5] = biological target: T1, TSPO from rat cerebral cortex (Rattus norvegicus, UniProt P16257); test: 3H-PK11195 equilibrium binding in presence of koumine
T1 construct: from tissue; host or cells: rat (SD) cerebral cortex, crude mitochondrial/membrane pellet
T1 sequence (P16257 whole entry): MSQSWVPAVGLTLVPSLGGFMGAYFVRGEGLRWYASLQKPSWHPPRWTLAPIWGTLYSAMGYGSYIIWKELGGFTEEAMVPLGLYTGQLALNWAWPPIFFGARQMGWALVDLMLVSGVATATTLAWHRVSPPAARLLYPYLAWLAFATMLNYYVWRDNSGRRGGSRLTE
Experimental: (§1) Briefly, male SD rats (240 ± 10 g) were killed by decapitation, and the cerebral cortices were dissected. The tissues were homogenized in 10 volumes (ml/g) of 50 mM Tris HCl buffer containing 0.32 M sucrose (pH 7.4). The homogenates were centrifuged at 1,000 g for 10 min at 4°C. The resulting pellets were discarded, and the supernatants were centrifuged at 9,000 g for 15 min. The pellets were resuspended in 10 volumes of Tris HCl buffer containing 0.32 M sucrose (pH 7.4) and centrifuged at 13,000 g for 30 min, then resuspended in 10 volumes of Tris HCl buffer and centrifuged again at 13,000 g for 30 min. The final pellets were suspended in Tris HCl buffer and used in the binding assays. Protein concentrations were measured using the BCA Protein Assay Kit (ThermoFisher Scientific) according to the manufacturer’s instructions.
After incubation at 4°C for 2 h, the reaction was terminated by the addition of ice-cold 50 mM Tris HCl buffer (pH 7.4) followed by vacuum filtration through Filtermat A glass microfiber filters (pretreated with 0.2% polyethylenimine) using a Brandel cell harvester. The filters were washed rapidly, and radioactivity was determined by liquid scintillation spectrometry.

[6] = biological target: T1, TSPO from rat cerebral cortex; test: 3H-PK11195 dissociation kinetics; format: binding
Experimental: as §1
Then, samples were filtered through Filtermat A glass microfiber filters (pretreated with 0.2% polyethylenimine) using a Brandel cell harvester, and the radioactivities were measured at the indicated time points.

[7] = system: TSPO from the rat cerebral cortex; design: method as in Jin, 2014; details: previous competitive binding assay; ref Jin, 2014; cited from earlier work
[8] = acute administration alone on day 29
[9] = given alone daily day 29 to day 35, MWT on day 35

CN1C(=O)CN=C(c2ccc(Cl)cc2)c2cc(Cl)ccc21 [Ro5-4864, reference compound]
paw edema (hind paw volume) ([1]; Ro5-4864 alone at the highest dose tested, daily day 29 to day 35 i.p., day 35): significantly inhibited paw edema
mechanical allodynia (MWT) [1, 8]: reduced mechanical allodynia
mechanical allodynia (MWT) [1, 9]: clearly reduced mechanical allodynia
cell viability [2]: not significantly affected
EC20 concentration, pregnenolone production [3]: ~11 µM
increase in pregnenolone production [3]: approximately 50%
EC50 [3]: 29 µM
Kd [4]: 0.0073 ± 0.0008 µM

C=C[C@@]12CN(C)[C@H]3C[C@]14C(=Nc1ccccc14)[C@H]1C[C@@H]2[C@@H]3CO1 [koumine]
effect on binding of 0.1 nM 3H-PK11195 ([5]; 10^−10 M and 10^−6 M koumine only): significantly increased the binding
effect on binding of 0.1 nM 3H-PK11195 ([5]; all concentrations of koumine, 10^−12–10^−3 M, not dose dependent): tended to increase the binding
dissociation rate of 3H-PK11195 relative to vehicle group ([6]; in presence of 10^−6 M koumine): 72%
dissociation rate of 3H-PK11195 relative to vehicle group ([6]; in presence of 10^−10 M koumine): 81%
mechanical allodynia (MWT) [1, 8]: dose-dependent inhibition effect
modulation of Ro5-4864 antinociceptive effect (MWT) ([1]; acute coadministration of 1.0 mg/kg koumine s.c. and Ro5-4864 i.p., day 29): clearly augmented the antinociceptive effect
mechanical allodynia (MWT) [1, 9]: clearly reduced mechanical allodynia
modulation of Ro5-4864-mediated anti-edematogenic effect (hind paw volume) ([1]; koumine 1.0 mg/kg s.c. coadministered with Ro5-4864 0.25 mg/kg i.p., successive administration, day 35): notably increased
modulation of Ro5-4864-mediated analgesic effect (MWT) ([1]; koumine 1.0 mg/kg s.c. coadministered with Ro5-4864 0.125–1.0 mg/kg i.p., successive administration, day 35): notably increased
paw edema (hind paw volume) ([1]; koumine alone daily day 29 to day 35 s.c., day 35): did not produce an anti-edematogenic effect
cell viability [2]: not significantly affected
EC50 ([3]; Rattus norvegicus, C6 glioma, 2 h): 270 µM
Emax ([3]; Rattus norvegicus, C6 glioma, 2 h, read-out: Emax, pregnenolone production): 33%
modulation of pregnenolone production activity ([3]; koumine with an EC20 concentration of PK11195 (∼27 μM)): did not significantly increase
modulation of pregnenolone production activity ([3]; koumine with an EC20 concentration of Ro5-4864 (∼11 μM)): did not significantly increase
effect on binding of 3H-PK11195 with TSPO [7]: significantly increased the binding
